From ChEMBL document CHEMBL6074684, “Structure-activity relationship study of novel evodiamine amino acid conjugates with potent anti-colorectal cancer efficacy” (Eur J Med Chem, 2025)
≈ marks a conversion by molar mass, not a printed value. Calls of active or inactive are those of the source. No cut-off for these calls is given here.

Legend:
HT-29 = assay: Antiproliferative activity against human HT-29 cells assessed as inhibition of cell growth incubated for 72 hrs by MTT assay; type: functional, cell-based; details: HT-29, 72 h
LoVo [1] = assay: Antiproliferative activity against human LoVo cells assessed as inhibition of cell growth incubated for 72 hrs by MTT assay; type: functional, cell-based
RKO [2] = assay: Antiproliferative activity against human RKO cells assessed as inhibition of cell growth incubated for 72 hrs by MTT assay; type: functional, cell-based
HGC-27 = assay: Antiproliferative activity against human HGC-27 cells assessed as inhibition of cell growth incubated for 72 hrs by MTT assay; type: functional, cell-based; details: HGC-27, 72 h
Huh-7 = assay: Antiproliferative activity against human Huh-7 cells assessed as inhibition of cell growth incubated for 72 hrs by MTT assay; type: functional, cell-based; details: Huh-7, 72 h
[3] = Aqueous solubility of compound by HPLC analysis; type: physicochemical
[4] = Stability of compound at pH 5.5 assessed as residual rate measured after 2 days; type: physicochemical; details: buffer, time 2 day, read-out: Stability
[5] = Half-life in male Sprague-Dawley rat at 50 mg/kg, ip measured after 24 hrs by LC-MS/MS analysis; type: ADME, organism-based; details: in vivo
[6] = Tmax in male Sprague-Dawley rat at 50 mg/kg, ip measured after 24 hrs by LC-MS/MS analysis; type: ADME, organism-based; details: in vivo
[7] = Cmax in male Sprague-Dawley rat at 50 mg/kg, ip measured after 24 hrs by LC-MS/MS analysis; type: ADME, organism-based; details: in vivo
[8] = AUC (0 to t) in male Sprague-Dawley rat at 50 mg/kg, ip measured after 24 hrs by LC-MS/MS analysis; type: ADME, organism-based; details: in vivo
RKO [9] = assay: Antiproliferative activity against human RKO cells assessed as reduction in cell viability measured after 24 hrs; type: functional, cell-based; details: dose 40-200 nmol/L
LoVo [10] = assay: Cell cycle arrest in human LoVo cells assessed as accumulation of cells at G1 phase cells at 10 nM incubated for 24 hrs by […]PI staining based flow cytometric analysis (reference value: 29.69 %); type: functional
LoVo [11] = assay: Cell cycle arrest in human LoVo cells assessed as accumulation of cells at G2 phase cells at 30 nM incubated for 24 hrs by […]PI staining based flow cytometric analysis (reference value: 14.84 %); type: functional
RKO [12] = assay: Cell cycle arrest in human RKO cells assessed as accumulation of cells at G1 phase at 90 nM incubated for 24 hrs by […]PI staining based flow cytometric analysis (reference value: 35.29 %); type: functional
RKO [13] = assay: Cell cycle arrest in human RKO cells assessed as accumulation of cells at S phase at 90 nM incubated for 24 hrs by […]PI staining based flow cytometric analysis (reference value: 43.36 %); type: functional
RKO [14] = assay: Cell cycle arrest in human RKO cells assessed as accumulation of cells at G1 phase at 10 nM incubated for 24 hrs by […]PI staining based flow cytometric analysis (reference value: 35.29 %); type: functional
RKO [15] = assay: Cell cycle arrest in human RKO cells assessed as accumulation of cells at G1 phase at 30 nM incubated for 24 hrs by […]PI staining based flow cytometric analysis (reference value: 35.29 %); type: functional
RKO [16] = assay: Cell cycle arrest in human RKO cells assessed as accumulation of cells at G2 phase at 30 nM incubated for 24 hrs by […]PI staining based flow cytometric analysis (reference value: 20.07 %); type: functional
RKO [17] = assay: Cell cycle arrest in human RKO cells assessed as accumulation of cells at S phase at 30 nM incubated for 24 hrs by […]PI staining based flow cytometric analysis (reference value: 43.36 %); type: functional
LoVo [18] = assay: Induction of morphological changes in human LoVo cells assessed as appearance of condensed morphology incubated for 24 hrs by Giemsa staining based microscopic analysis; type: functional, cell-based; details: dose 10-90 nM
RKO [19] = assay: Induction of morphological changes in human RKO cells assessed as appearance of condensed morphology incubated for 24 hrs by Giemsa staining based microscopic analysis; type: functional, cell-based; details: dose 10-90 nM
RKO [20] = assay: Induction of morphological changes in human RKO cells assessed as appearance of contracted nucleus incubated for 24 hrs by Giemsa staining based microscopic analysis; type: functional, cell-based; details: dose 10-90 nM
[21] = Apparent clearance during terminal phase in male Sprague-Dawley rat at 50 mg/kg, ip measured after 24 hrs by LC-MS/MS analysis; type: ADME, organism-based; details: in vivo, read-out: CLz/F (converted)
Mitochondrial membrane [22] = assay: Induction of mitochondrial membrane potential loss in human RKO cells assessed as TMRE positive cells at 90 nM incubated for 24 hrs by TMRE staining based flow cytometric analysis (reference value: 95.54 %); type: cell membranes
Mitochondrial membrane [23] = assay: Induction of mitochondrial membrane potential loss in human LoVo cells assessed as decrease in TMRE positive cells at 10 to 90 nM incubated for 24 hrs by TMRE staining based flow cytometric analysis; type: cell membranes; details: dose 10-90 nM
Mitochondrial membrane [24] = assay: Induction of mitochondrial membrane potential loss in human RKO cells assessed as decrease in TMRE positive cells at 10 to 90 nM incubated for 24 hrs by TMRE staining based flow cytometric analysis; type: cell membranes; details: dose 10-90 nM
LoVo [25] = assay: Antitumor activity against human LoVo cells xenografted in male BALB/c nude mouse assessed as tumor growth inhibition at 40 mg/kg, ip administered once daily for 14 days relative to control; type: functional; details: 336 h, time 14 day, read-out: TGI
[26] = Toxicity in male BALB/c nude mouse xenografted with human LoVo cells assessed as tolerance at 40 mg/kg, ip administered once daily for 14 days; type: organism-based; details: in vivo, 336 h, time 14 day
[27] = Toxicity in male BALB/c nude mouse xenografted with human HT-29 cells assessed as tolerance at 40 mg/kg, ip administered once daily for 14 days; type: organism-based; details: in vivo, 336 h, time 14 day
[28] = Toxicity in male BALB/c nude mouse xenografted with human LoVo cells assessed as body weight loss at 40 mg/kg, ip administered once daily for 14 days; type: organism-based; details: in vivo, 336 h, time 14 day
[29] = Chemical stability of compound in McCoy's 5A cell culture medium containing 1 % DMSO assessed as retention time at 100 uM incubated for 24 hrs by HPLC analysis; type: physicochemical
[30] = Chemical stability of compound in McCoy's 5A cell culture medium containing 1 % DMSO assessed as (S)-3-fluoro-14-(3-fluorophenyl)-10-hydroxy-8,13,13b,14-tetrahydroindolo[2',3':3,4]pyrido[2,1-b]quinazolin-5(7H)-one release by measuring retention time at 100 uM incubated for 24 hrs by HPLC analysis; type: physicochemical

In the case of `CC(C)(C)OC(=O)N[C@@H](CCC(N)=O)C(=O)Oc1ccc2[nH]c3c(c2c1)CCN1C(=O)c2cc(F)ccc2N(c2cccc(F)c2)[C@H]31`, the IC50 (HT-29) is reported as 130 nM, the IC50 (LoVo [1]) is reported as 70 nM and the IC50 (RKO [2]) is reported as 50 nM. The IC50 (HGC-27) was 110 nM, the IC50 (Huh-7) was 370 nM and the solubility [3] was 11.4 µg/mL (≈ 17.7 µM). The remaining at 48 h [4] was 60.1%, the half-life [5] was 1.38 h and the Tmax [6] was 1 h. The Cmax [7] was 7080 ng/mL, the AUC(0-t) at 24 h [8] was 14600 ng·h/mL and the Activity (RKO [9]) was “Dose-dependent-effect”. For the same compound, the Activity (LoVo [10]) was 26.62%, the Activity (LoVo [11]) was 61.56% and the Activity (RKO [12]) was 26.83%. For the same compound, the Activity (RKO [13]) was 49.95%, the Activity (RKO [14]) was 29.55% and the Activity (RKO [15]) was 16.95%. For the same compound, the Activity (RKO [16]) was 56.8%, the Activity (RKO [17]) was 25.51% and the Activity (LoVo [18]) was “Dose-dependent-effect”. The Activity (RKO [19]) was “Dose-dependent-effect”, the Activity (RKO [20]) was “Dose-dependent-effect” and the CL/F [21] was 57.2 mL/min/kg. The Activity (Mitochondrial membrane [22]) was 85.1%, the Activity (Mitochondrial membrane [23]) was “Active” and the Activity (Mitochondrial membrane [24]) was “Active”. For the same compound, the inhibition in vivo at 40 mg/kg (LoVo [25]) was 82.5%, the Activity [26] was “Non-toxic” and the Activity [27] was “Non-toxic”. The Activity [28] was “Non-toxic”, the Retention_time [29] was 8.63 min and the Retention_time [30] was 6.24 min.
